One data set deals with MEK. Put plainly: Cellular assay for measuring MEK inhibition (inhibition of ERK phosphorylation). Type of data set: cell-based. Particulars: inhibition of phosphorylation of MAP kinase (ERK) in murine colon 26 (C26) carcinoma cells; 1 hour at 37° C.; Western blotting. The protocol:
Cellular Assay for Measuring MEK Inhibition
The evaluation of the compounds as MEK inhibitors is performed in an assay that measures their ability to inhibit phosphorylation of MAP kinase (ERK) in murine colon 26 (C26) carcinoma cells. Since ERK1 and ERK2 represent the only known substrates for MEK, measurement of inhibition of ERK phosphorylation in cells provides direct readout of cellular MEK inhibition by the compounds of the invention. Briefly, the assay involves treating exponentially growing C26 cells with varying concentrations of the test compound (or vehicle control) for 1 hour at 37° C. Cells are then rinsed free of compound/vehicle and lysed in a solution containing 70 mM NaCl, 50 mM glycerol phosphate, 10 mM HEPES, pH 7.4, 1% Triton X-100, 1 mM Na3VO4, 100 μM PMSF, 10 μM leupeptin, and 10 μM pepstatin. Supernatants are then subjected to gel electrophoresis and Western blotting using a primary antibody recognizing dually phosphorylated ERK1 and ERK2. To evaluate total MAPK levels, blots were subsequently ‘stripped’ and re-probed with a 1:1 mixture of polyclonal antibodies recognizing unphosphorylated ERK1 and ERK2.
The inhibition data generated by the above protocol is disclosed in Table 1. If several concentrations of inhibitor were tested, IC50 values (the concentration which gives 50% inhibition) were determined graphically from the dose response curve for % inhibition. Otherwise, percent inhibitions at measured concentrations are reported.
A general note: Immunoblotting shows a protein as a band on a membrane.

A word on the IC50: it is the concentration needed to halve the response being measured. A higher IC50 goes with lower potency. Usually melting point stands for the temperature, or range, at which the solid turns liquid.

The compound `CCc1ccc(Nc2c(C(=O)NOCCO)ccc(F)c2F)c(F)c1` [Example 1, 2-[(4-Ethyl-2-fluorophenyl)amino]-3,4-difluoro-N-(2-hydroxyethoxy)benzamide] came in with an IC50 with MEK of 2.8 nM. As to `CCc1ccc(Nc2c(C(=O)NOCCO)ccc(F)c2F)c(Cl)c1` [Example 2, 2-(2-Chloro-4-ethyl-phenylamino)-3,4-difluoro-N-(2-hydroxy-ethoxy)-benzamide], the melting point fell in the range of 142.5 to 145 °C. Moreover, the IC50 with MEK was 8.6 nM. Taken in the same sequence, the figures for `Cc1ccc(Nc2c(C(=O)NOCCO)ccc(F)c2F)c(F)c1` [Example 3, 3,4-Difluoro-2-(2-fluoro-4-methylanilino)-N-(2-hydroxyethoxy)benzamide] were 134 to 139 °C and 0.15 nM. Taken in the same sequence, the figures for `C=Cc1ccc(Nc2c(C(=O)NOCCO)ccc(F)c2F)c(F)c1` [Example 4, 3,4-Difluoro-2-[(2-fluoro-4-vinylphenyl)amino]-N-(2-hydroxyethoxy)benzamide] were 134 to 138 °C and 2.6 nM. `C=CCc1ccc(Nc2c(C(=O)NOCCO)ccc(F)c2F)c(F)c1` [Example 6, 2-(4-Allyl-2-fluoroanilino)-3,4-difluoro-N-(2-hydroxyethoxy)benzamide] came in with a melting point of 173 to 177 °C. Besides, in the data set with MEK, the IC50 amounted to 7.8 nM. For `C#Cc1ccc(Nc2c(C(=O)NOCCO)ccc(F)c2F)c(F)c1` [Example 7], in that order: 158 to 161 °C and 0.15 nM. As for `C#Cc1ccc(Nc2c(C(=O)NOCCO)ccc(F)c2F)c(Cl)c1` [Example 8, 2-(2-Chloro-4-ethynyl-phenylamino)-3,4-difluoro-N-(2-hydroxy-ethoxy)-benzamide], the melting point was in the range of 155 to 157 °C. This compound gave an IC50 with MEK of 4 nM.

As to `NCC#Cc1ccc(Nc2c(C(=O)NOCCO)ccc(F)c2F)c(F)c1` [Example 9, 2-[4-(3-Amino-1-propynyl)-2-fluoroanilino]-3,4-difluoro-N-(2-hydroxyethoxy)benzamide], the melting point fell in the range of 72 to 76 °C. Further, it took 467 nM to reach half-maximal inhibition in the data set with MEK (IC50). Compound `O=C(NOCCO)c1ccc(F)c(F)c1Nc1ccc(C#CCO)cc1F` [Example 10, 3,4-Difluoro-2-[2-fluoro-4-(3-hydroxy-1-propynyl)anilino]-N-(2-hydroxyethoxy)benzamide] displayed a melting point of 169 to 172 °C. Also, in the data set with MEK, the IC50 amounted to 130 nM. Taken in the same sequence, the figures for `O=C(NOCCO)c1ccc(F)c(F)c1Nc1ccc(C#CCCO)cc1F` [Example 11, 3,4-Difluoro-2-[2-fluoro-4-(4-hydroxy-1-butynyl)anilino]-N-(2-hydroxyethoxy)benzamide] were 126 to 129 °C and 700 nM. Taken in the same sequence, the figures for `CC(C)(O)C#Cc1ccc(Nc2c(C(=O)NOCCO)ccc(F)c2F)c(F)c1` [Example 12, 3,4-Difluoro-2-[2-fluoro-4-(3-hydroxy-3-methyl-1-butynyl)anilino]-N-(2-hydroxyethoxy)benzamide] were 139 to 142 °C and above 3000 nM.

Consider `CCC(C)(O)C#Cc1ccc(Nc2c(C(=O)NOCCO)ccc(F)c2F)c(F)c1` (stereo not shown) [Example 13, 3,4-Difluoro-2-[2-fluoro-4-(3-hydroxy-3-methyl-1-pentynyl)anilino]-N-(2-hydroxyethoxy)benzamide], for which the melting point fell in the range of 127 to 131 °C. The compound also returned an IC50 with MEK above 1000 nM. `NCCCc1ccc(Nc2c(C(=O)NOCCO)ccc(F)c2F)c(F)c1` [Example 14, 2-[4-(3-Aminopropyl)-2-fluoroanilino]-3,4-difluoro-N-(2-hydroxyethoxy)benzamide] showed a melting point of 178 to 181 °C. This compound had an IC50 in the data set with MEK above 1000 nM. As for `CN(C)CCCc1ccc(Nc2c(C(=O)NOCCO)ccc(F)c2F)c(F)c1` [Example 15, 2-{4-[3-(Dimethylamino)propyl]-2-fluoroanilino}-3,4-difluoro-N-(2-hydroxyethoxy)benzamide], the IC50 with MEK is above 1000 nM. In the case of `CNCCCc1ccc(Nc2c(C(=O)NOCCO)ccc(F)c2F)c(F)c1` [Example 16, 3,4-Difluoro-2-{2-fluoro-4-[3-(methylamino)propyl]anilino}-N-(2-hydroxyethoxy)benzamide], the melting point fell in the range of 112 to 116 °C. In the data set with MEK, the IC50 is above 1000 nM.

In the case of `O=C(NOCCO)c1ccc(F)c(F)c1Nc1ccc(CO)cc1` [Example 17, 3,4-Difluoro-N-(2-hydroxyethoxy)-2-[[4-(hydroxymethyl)phenyl]amino]benzamide], the melting point lay within 73 to 77 °C. Also, the IC50 in the data set with MEK is above 1000 nM.

Consider `O=C(NOCCO)c1ccc(F)c(F)c1Nc1ccc(CO)cc1F` [Example 18, 3,4-Difluoro-2-[2-fluoro-4-(hydroxymethyl)anilino]-N-(2-hydroxyethoxy)benzamide], for which the melting point lay within 108 to 110 °C.

The compound `O=C(NOCCO)c1ccc(F)c(F)c1Nc1ccc(CCCO)cc1F` [Example 20, 3,4-Difluoro-2-[2-fluoro-4-(3-hydroxypropyl)anilino]-N-(2-hydroxyethoxy)benzamide] came in with a melting point of 115 to 116 °C. In the case of `O=C(NOCCO)c1ccc(F)c(F)c1Nc1ccc(CCCCO)cc1F` [Example 21, 3,4-Difluoro-2-[2-fluoro-4-(4-hydroxybutyl)anilino]-N-(2-hydroxyethoxy)benzamide], the melting point lay in the range of 65 to 69 °C. The compound further showed an IC50 with MEK of 800 nM. Take `O=C(NOCCO)c1ccc(F)c(F)c1Nc1ccc(CC(O)CO)cc1F` (stereo not shown) [Example 22, 2-[4-(2,3-Dihydroxypropyl)-2-fluoroanilino]-3,4-difluoro-N-(2-hydroxyethoxy)benzamide]: the melting point was 118 to 120 °C. `CC(C)(O)CCc1ccc(Nc2c(C(=O)NOCCO)ccc(F)c2F)c(F)c1` [Example 23, 3,4-Difluoro-2-[2-fluoro-4-(3-hydroxy-3-methylbutyl)anilino]-N-(2-hydroxyethoxy)benzamide] yielded an IC50 in the data set on MEK of 200 nM. For the compound `CCC(C)(O)CCc1ccc(Nc2c(C(=O)NOCCO)ccc(F)c2F)c(F)c1` (stereo not shown) [Example 24, 3,4-Difluoro-2-[2-fluoro-4-(3-hydroxy-3-methylpentyl)anilino]-N-(2-hydroxyethoxy)benzamide], the IC50 in the data set with MEK was determined as 590 nM. The same measure, in the same setting: the same measure for `COCCCc1ccc(Nc2c(C(=O)NOCCO)ccc(F)c2F)c(F)c1` [Example 25, 3,4-Difluoro-2-[[2-fluoro-4-(3-methoxypropyl)phenyl]amino]-N-(2-hydroxyethoxy)benzamide]: 22 nM. With `CSc1ccc(Nc2c(C(=O)NOCCO)ccc(F)c2F)c(F)c1` [Example 26, 3,4-Difluoro-2-[[2-fluoro-4-(methylthio)phenyl]amino]-N-(2-hydroxyethoxy)benzamide], the melting point lay in the range of 108 to 111 °C. This compound also displayed a 50% inhibitory concentration (IC50) with MEK of 0.85 nM. For `CCSc1ccc(Nc2c(C(=O)NOCCO)ccc(F)c2F)c(F)c1` [Example 27, 3,4-Difluoro-2-[[2-fluoro-4-(ethylthio)phenyl]amino]-N-(2-hydroxyethoxy)benzamide], in that order: 129 to 132 °C and 2.2 nM. Taken in the same sequence, the figures for `CS(=O)(=O)c1ccc(Nc2c(C(=O)NOCCO)ccc(F)c2F)c(F)c1` [Example 28, 3,4-Difluoro-2-[[2-fluoro-4-(methylsulfonyl)phenyl]amino]-N-(2-hydroxyethoxy)benzamide] were 85 to 88 °C and 720 nM. Taken in the same sequence, the figures for `CCCc1ccc(Nc2c(C(=O)NOCCO)ccc(F)c2F)c(F)c1` [Example 29, 3,4-Difluoro-2-(2-fluoro-4-propylanilino)-N-(2-hydroxyethoxy)benzamide] were 144 to 146 °C and 4.1 nM. Turning to `CCCCc1ccc(Nc2c(C(=O)NOCCO)ccc(F)c2F)c(F)c1` [Example 30, 2-(4-Butyl-2-fluoroanilino)-3,4-difluoro-N-(2-hydroxyethoxy)benzamide], in the data set on MEK, the IC50 came to 190 nM.

The compound `CCc1ccc(Nc2c(C(=O)NOC[C@@H](O)CO)ccc(F)c2F)c(F)c1` [Example 32, N-[(S+)2,3-Dihydroxy-propoxy]-2-(4-ethyl-2-fluoro-phenylamino)-3,4-difluoro-benzamide] gave an IC50 in the data set on MEK of 2 nM. `CCc1ccc(Nc2c(C(=O)NOC(CO)CO)ccc(F)c2F)c(F)c1` [Example 33, 2-(4-Ethyl-2-fluoro-phenylamino)-3,4-difluoro-N-(2-hydroxy-1-hydroxymethyl-ethoxy)-benzamide] returned a melting point of 91 to 93 °C.

Values taken from US7078438B2, “N-(4 substituted phenyl)-anthranilic acid hydroxamate esters” (Warner-Lambert Company, priority 2002, dated 2006).
